The values below come from patent US4803272A (priority 1987, dated 1989).

Structures can show the parent of a compound that is named as a salt.

Data set [1] concerns human alpha [leucocyte] interferon. As to conditions: mdbk cells.
The target in a further data set is T1, spermidine synthase (Homo sapiens, UniProt P19623).
T1 sequence (P19623 1-302): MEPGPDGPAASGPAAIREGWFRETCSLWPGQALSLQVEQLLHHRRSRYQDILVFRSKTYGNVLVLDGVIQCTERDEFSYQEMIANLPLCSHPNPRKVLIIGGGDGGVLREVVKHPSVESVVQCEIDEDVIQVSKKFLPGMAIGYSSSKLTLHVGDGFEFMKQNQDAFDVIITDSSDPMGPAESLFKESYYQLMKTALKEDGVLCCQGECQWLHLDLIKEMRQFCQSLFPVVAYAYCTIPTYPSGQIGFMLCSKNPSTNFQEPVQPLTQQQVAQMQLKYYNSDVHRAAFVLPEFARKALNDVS
As to the kind of experiment: Spermidine synthase inhibiting activity. Type of data set: biochemical. As to conditions: pH 8.2, 37°, 10 min, 20 μM decarboxylated S-adenosyl-L-methionine.

Data set [2] concerns vesicular stomatitis virus [VSV], New Jersey strain. Type of data set: cell-based. As to conditions: without interferon; Maden-Darby bovine kidney cells.
For a further data set, the system named is B16 melanoma cells. As to conditions: DFMO in combination with interferon; cited from earlier work.
The subject of a further data set is human beta interferon. Format: cell-based.
The next data set concerns human gamma interferon. Type of data set: cell-based.

Description for spermidine synthase: Reactions were initiated by the addition of enzyme and incubated for 10 minues at 37° . The reactions were stopped by the additions of 5 μL of 100 mM spermidine and 5 μL of a slurry of 160 mg/mL of Darco G60 in water. The mixtures were centrifuged at 10,000×g for 2 minutes and a 40 μL aliquot of the supernate counted. Blank reactions were run using zero incubation time, or omitting enzyme or putrescine.
This assay made use of the adsorption of unreacted substrate, decarboxylated S-adenosyl-L-methionine, on charcoal while leaving the product polyamine in solution.

`NCCCCCC(CCN)SC[C@@H]1C[C@H](n2cnc3c(N)ncnc32)[C@@H](O)[C@H]1O` (relative stereo) [Example 3, 1,t-(9-adenyl)-2,c-3,c-dihydroxy-4,t-[2-thia-3-(2-aminoethyl)-8-aminooctyl]cyclopentane hydrochloride]: the “potentiation of human alpha interferon” value in data set [1] is given as 2 ×. On spermidine synthase, 2 µM corresponded to half-maximal inhibition (IC50). Also, in data set [2], the “antiviral activity of compound by itself against VSV” value is “no antiviral activity”.

In the case of `NCCC[C@](N)(C(=O)O)C(F)F` [DFMO, α-difluoromethyl ornithine], the “suppression of tumor growth of B16 melanoma cells” value in the data set with B16 melanoma cells was “total or near total suppression”.

In the case of `NCCCCCC(CCN)SCCOCn1cnc2c(N)ncnc21` (stereo not shown) [Example 1, 9-[2-oxa-5-thia-6-(2-aminoethyl)-11-aminoundecyl]-6-aminopurine], in data set [1], the “potentiation of human alpha [leucocyte] interferon” value turned out to be 2 × and the “potentiation of human alpha interferon” value amounted to 8 ×. This compound also displayed an IC50 on spermidine synthase of approximately 100 µM. The “potentiation of human beta interferon” value in the data set on human beta interferon is 16 ×. Further, the “potentiation of human gamma interferon” value in the data set on human gamma interferon was determined as 4 ×. The “antiviral activity of compound by itself against VSV” value in data set [2] is reported as “no antiviral activity”.
